Read-outs that look alike come from different tables or passages of the source.
Assays:
Assay type in all cases: in vivo
GABA-T = molecular target: T1, GABA-T (Mus musculus, UniProt P61922); assay: GABA-T activity in brain of mice after daily i.p. dosing for four days; conditions: ip, four consecutive days, 24 hours after the last dose; for inhibition at 5 mg/kg: daily dose 5 mg/kg i.p.; for inhibition at 10 mg/kg: daily dose 10 mg/kg i.p.
T1 construct: The brains are removed from the dead mice and are divided into two portions by sagittal section; from tissue; host or cells: brain of male albino CD1 mice dosed i.p. for four days
Method: (§1) A group of 10 male albino CDI mice from Charles Riner, France, is given an i.p. injection of the test compound in aqueous solution daily for four consecutive days. Half of the animals are killed by decapitation 24 hours after the last dose of the test compound. The other half of the animals are observed for up to 12 days for toxicity (as indicated by weight loss and deaths). Control animals receive an injection of the vehicle only.
(§2) The brains are removed from the dead mice and are divided into two portions by sagittal section. One half is used for the measurement of GABA-T activity while the other half is used for measuring GABA content. The GABA-T activity is measured using known methods as dessribed by M.Jung et al., J. Neurochem., 28, 717 (1977) and 29, 797 (1977). GABA content is measured by perchloric acid or trichloroacetic acid extracts using an amino acid analyzer equiped with a fluorescene detector.

[1] = tested on: GABA concentration in the brain; assay: GABA content in brain of mice after daily i.p. dosing for four days; conditions: four consecutive days, 24 hours after the last dose
Method: as §1, §2

[2] = Toxicity (weight loss and deaths) in mice after daily i.p. dosing for four days; conditions: four consecutive days, observed for up to 12 days; for Morality (After treatment) / mortality at 288 h: deaths per 5 mice; for mortality at 288 h: mouse, in vivo, ip, read-out: Morality (After treatment) (converted)
Method: as §1

[3] = tested on: clonic seizures induced by an i.v. challenge of (+)-bicuculline; assay: Protection of mice against clonic seizures induced by i.v. (+)-bicuculline; conditions: for ED50: Mus musculus, ip, single dose, protection against bicuculline-induced clonic seizures

T1 sequence (P61922 29-500): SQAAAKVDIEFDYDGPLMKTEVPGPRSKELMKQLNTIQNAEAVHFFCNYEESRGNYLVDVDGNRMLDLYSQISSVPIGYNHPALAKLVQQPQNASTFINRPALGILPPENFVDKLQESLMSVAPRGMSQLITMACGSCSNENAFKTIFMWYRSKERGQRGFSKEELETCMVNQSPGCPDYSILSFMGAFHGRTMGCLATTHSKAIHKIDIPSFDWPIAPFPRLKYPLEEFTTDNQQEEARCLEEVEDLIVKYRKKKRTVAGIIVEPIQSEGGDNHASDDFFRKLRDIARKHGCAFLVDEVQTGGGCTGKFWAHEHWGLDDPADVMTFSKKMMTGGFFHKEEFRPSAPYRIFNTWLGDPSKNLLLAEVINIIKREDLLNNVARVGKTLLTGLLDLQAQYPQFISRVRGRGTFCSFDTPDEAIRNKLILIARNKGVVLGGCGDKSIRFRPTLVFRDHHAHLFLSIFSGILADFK

## NCCC(N)C(F)F (stereo not drawn) [DFDB, 1,1-difluoro-2,4-diaminobutane]
GABA-T; daily dose 2 mg/kg i.p.
  inhibition at 2 mg/kg: 69.5%
GABA-T
  inhibition at 5 mg/kg: 71.4%
  inhibition at 10 mg/kg: 81%
GABA-T; daily dose 20 mg/kg i.p.
  inhibition at 20 mg/kg: 96.7%
[1]; daily dose 5 mg/kg i.p.
  GABA content elevation: 200%
[1]; daily dose 10 mg/kg i.p.
  GABA content elevation: 275%
[1]; daily dose 20 mg/kg i.p.
  GABA content elevation: 465%
[2]; daily dose 2 mg/kg i.p.
  Morality (After treatment): 0/5
  Weight Loss: 0%
[2]; daily dose 5 mg/kg i.p.
  Morality (After treatment): 0/5
  Weight Loss: 0%
[2]; daily dose 10 mg/kg i.p.
  mortality at 288 h: 60%
[2]; daily dose 20 mg/kg i.p.
  mortality at 288 h: 100%
[3]
  ED50: 4.2 mg/kg
[3]; single dose 3 mg/kg i.p.
  % of Animals Blocked: 20%
[3]; single dose 4 mg/kg i.p.
  % of Animals Blocked: 45%
[3]; single dose 6 mg/kg i.p.
  % of Animals Blocked: 90%
[3]; single dose 8 mg/kg i.p.
  % of Animals Blocked: 95%

## NCCC(N)CF (stereo not drawn) [MFDB, 1-fluoro-2,4-diaminobutane]
GABA-T
  inhibition at 5 mg/kg: 39.7%
  inhibition at 10 mg/kg: 49.8%
GABA-T; daily dose 25 mg/kg i.p.
  inhibition at 25 mg/kg: 74%
GABA-T; daily dose 50 mg/kg i.p.
  inhibition at 50 mg/kg: 79%
[1]; daily dose 5 mg/kg i.p.
  GABA content elevation: 190%
[1]; daily dose 10 mg/kg i.p.
  GABA content elevation: 200%
[1]; daily dose 25 mg/kg i.p.
  GABA content elevation: 470%
[1]; daily dose 50 mg/kg i.p.
  GABA content elevation: 465%
[2]; daily dose 5 mg/kg i.p.
  Morality (After treatment): 0/5
  Weight Loss: 0%
[2]; daily dose 10 mg/kg i.p.
  Morality (After treatment): 0/5
  Weight Loss: 0%
[2]; daily dose 25 mg/kg i.p.
  mortality at 288 h: 40%
[2]; daily dose 50 mg/kg i.p.
  mortality at 288 h: 60%
[3]
  ED50: 65 mg/kg
[3]; single dose 42 mg/kg i.p.
  % of Animals Blocked: 20%
[3]; single dose 51 mg/kg i.p.
  % of Animals Blocked: 40%
[3]; single dose 59 mg/kg i.p.
  % of Animals Blocked: 50%
[3]; single dose 68 mg/kg i.p.
  % of Animals Blocked: 55%
[3]; single dose 84 mg/kg i.p.
  % of Animals Blocked: 60%
[3]; single dose 100 mg/kg i.p.
  % of Animals Blocked: 60%

— patent publication EP0046712A1, “Fluorinated diaminobutane derivatives” (MERRELL TORAUDE ET COMPAGNIE, priority 1980, dated 1982)
